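Growth conditions: 96-well plates. Treatment: test compound, 48 hours, 5 concentrations. Analysis: linear interpolation between bracketing concentrations; unreached endpoints set to highest concentration. The concentration for 50% growth inhibition is given as GI50. TGI: total growth inhibition.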
Key:
Experiment in all cases: NCI-60 cell line screen, 48 h
LOX IMVI melanoma = system: LOX IMVI melanoma
SN12C renal = system: SN12C renal
UACC-257 melanoma = system: UACC-257 melanoma
CAKI-1 renal = system: CAKI-1 renal
BT-549 breast = system: BT-549 breast
NCI-H226 lung = system: NCI-H226 lung
UACC-62 melanoma = system: UACC-62 melanoma
MCF7 breast = system: MCF7 breast
IGROV1 ovarian = system: IGROV1 ovarian
NCI-H522 lung = system: NCI-H522 lung
MOLT-4 leukemia = system: MOLT-4 leukemia
SK-MEL-28 melanoma = system: SK-MEL-28 melanoma
RPMI-8226 leukemia = system: RPMI-8226 leukemia
MDA-MB-435 = system: MDA-MB-435
PC-3 prostate = system: PC-3 prostate
SK-OV-3 ovarian = system: SK-OV-3 ovarian
SF-539 CNS = system: SF-539 CNS
HS 578T breast = system: HS 578T breast
MALME-3M melanoma = system: MALME-3M melanoma
M14 melanoma = system: M14 melanoma
NCI-H23 lung = system: NCI-H23 lung
MDA-MB-231 breast = system: MDA-MB-231 breast
NCI/ADR-RES ovarian = system: NCI/ADR-RES ovarian
A498 renal = system: A498 renal
HCT-15 colon = system: HCT-15 colon
K-562 leukemia = system: K-562 leukemia
SF-268 CNS = system: SF-268 CNS
HCT-116 colon = system: HCT-116 colon
MDA-MB-468 breast = system: MDA-MB-468 breast
DU-145 prostate = system: DU-145 prostate
EKVX NSCLC = system: EKVX NSCLC
COLO 205 colon = system: COLO 205 colon
SK-MEL-5 melanoma = system: SK-MEL-5 melanoma
CCRF-CEM leukemia = system: CCRF-CEM leukemia
ACHN renal = system: ACHN renal
OVCAR-4 ovarian = system: OVCAR-4 ovarian
SW-620 colon = system: SW-620 colon
SF-295 CNS = system: SF-295 CNS
U251 CNS = system: U251 CNS
A549 NSCLC = system: A549 NSCLC
786-0 renal = system: 786-0 renal
SNB-75 CNS = system: SNB-75 CNS
HL-60(TB) leukemia = system: HL-60(TB) leukemia
HOP-62 NSCLC = system: HOP-62 NSCLC
KM12 colon = system: KM12 colon
OVCAR-8 ovarian = system: OVCAR-8 ovarian
OVCAR-3 ovarian = system: OVCAR-3 ovarian
SNB-19 CNS = system: SNB-19 CNS
OVCAR-5 ovarian = system: OVCAR-5 ovarian
HCC-2998 colon = system: HCC-2998 colon
HOP-92 NSCLC = system: HOP-92 NSCLC
RXF 393 renal = system: RXF 393 renal
UO-31 renal = system: UO-31 renal
TK-10 renal = system: TK-10 renal
SK-MEL-2 melanoma = system: SK-MEL-2 melanoma

Compound: O=C(NN1C(=O)/C(=C/C=C/c2ccc([N+](=O)[O-])o2)SC1=S)c1ccc(O)cc1
- GI50 (LOX IMVI melanoma): 0.185 µM
- TGI (LOX IMVI melanoma): 0.358 µM
- GI50 (SN12C renal): 0.344 µM
- TGI (SN12C renal): 1.63 µM
- GI50 (UACC-257 melanoma): 1.69 µM
- TGI (UACC-257 melanoma): 3.5 µM
- GI50 (CAKI-1 renal): 1.5 µM
- TGI (CAKI-1 renal): 2.9 µM
- GI50 (BT-549 breast): 1.36 µM
- TGI (BT-549 breast): 2.79 µM
- GI50 (NCI-H226 lung): 0.69 µM
- TGI (NCI-H226 lung): 2.28 µM
- GI50 (UACC-62 melanoma): 1.05 µM
- TGI (UACC-62 melanoma): 2.26 µM
- GI50 (MCF7 breast): 1.41 µM
- TGI (MCF7 breast): 3.19 µM
- GI50 (IGROV1 ovarian): 1.46 µM
- TGI (IGROV1 ovarian): 2.82 µM
- GI50 (NCI-H522 lung): 0.217 µM
- TGI (NCI-H522 lung): 0.498 µM
- GI50 (MOLT-4 leukemia): > 100 µM
- TGI (MOLT-4 leukemia): > 100 µM
- GI50 (SK-MEL-28 melanoma): 1.67 µM
- TGI (SK-MEL-28 melanoma): 3.1 µM
- GI50 (RPMI-8226 leukemia): 0.713 µM
- TGI (RPMI-8226 leukemia): 5.34 µM
- GI50 (MDA-MB-435): 1.13 µM
- TGI (MDA-MB-435): 2.51 µM
- GI50 (PC-3 prostate): 2.37 µM
- TGI (PC-3 prostate): 7.23 µM
- GI50 (SK-OV-3 ovarian): 2.49 µM
- TGI (SK-OV-3 ovarian): 5.96 µM
- GI50 (SF-539 CNS): 1.66 µM
- TGI (SF-539 CNS): 3.12 µM
- GI50 (HS 578T breast): 2.52 µM
- TGI (HS 578T breast): 8.64 µM
- GI50 (MALME-3M melanoma): 0.246 µM
- TGI (MALME-3M melanoma): 0.558 µM
- GI50 (M14 melanoma): 0.316 µM
- TGI (M14 melanoma): 1.35 µM
- GI50 (NCI-H23 lung): 1.27 µM
- TGI (NCI-H23 lung): 2.69 µM
- GI50 (MDA-MB-231 breast): 0.399 µM
- TGI (MDA-MB-231 breast): 1.42 µM
- GI50 (NCI/ADR-RES ovarian): 2.2 µM
- TGI (NCI/ADR-RES ovarian): 5.21 µM
- GI50 (A498 renal): 18.8 µM
- TGI (A498 renal): 32.8 µM
- GI50 (HCT-15 colon): 0.212 µM
- TGI (HCT-15 colon): 0.499 µM
- GI50 (K-562 leukemia): > 100 µM
- TGI (K-562 leukemia): > 100 µM
- GI50 (SF-268 CNS): 1.97 µM
- TGI (SF-268 CNS): 4.34 µM
- GI50 (HCT-116 colon): 0.382 µM
- TGI (HCT-116 colon): 1.57 µM
- GI50 (MDA-MB-468 breast): 1.72 µM
- TGI (MDA-MB-468 breast): 3.58 µM
- GI50 (DU-145 prostate): 2.35 µM
- TGI (DU-145 prostate): 5.79 µM
- GI50 (EKVX NSCLC): 1.57 µM
- TGI (EKVX NSCLC): 3.19 µM
- GI50 (COLO 205 colon): 1.73 µM
- TGI (COLO 205 colon): 3.35 µM
- GI50 (SK-MEL-5 melanoma): 1.12 µM
- TGI (SK-MEL-5 melanoma): 2.34 µM
- GI50 (CCRF-CEM leukemia): 0.195 µM
- TGI (CCRF-CEM leukemia): 1.81 µM
- GI50 (ACHN renal): 1.77 µM
- TGI (ACHN renal): 3.22 µM
- GI50 (OVCAR-4 ovarian): 1.86 µM
- TGI (OVCAR-4 ovarian): 4.22 µM
- GI50 (SW-620 colon): 0.307 µM
- TGI (SW-620 colon): 0.996 µM
- GI50 (SF-295 CNS): 2.04 µM
- TGI (SF-295 CNS): 4.59 µM
- GI50 (U251 CNS): 1.75 µM
- TGI (U251 CNS): 3.52 µM
- GI50 (A549 NSCLC): 3.78 µM
- TGI (A549 NSCLC): 16.3 µM
- GI50 (786-0 renal): 1.78 µM
- TGI (786-0 renal): 3.27 µM
- GI50 (SNB-75 CNS): 1.31 µM
- TGI (SNB-75 CNS): 4.38 µM
- GI50 (HL-60(TB) leukemia): > 100 µM
- TGI (HL-60(TB) leukemia): > 100 µM
- GI50 (HOP-62 NSCLC): 1.89 µM
- TGI (HOP-62 NSCLC): 3.6 µM
- GI50 (KM12 colon): 1.93 µM
- TGI (KM12 colon): 4.29 µM
- GI50 (OVCAR-8 ovarian): 1.3 µM
- TGI (OVCAR-8 ovarian): 3.4 µM
- GI50 (OVCAR-3 ovarian): 1.68 µM
- TGI (OVCAR-3 ovarian): 3.14 µM
- GI50 (SNB-19 CNS): 1.92 µM
- TGI (SNB-19 CNS): 3.9 µM
- GI50 (OVCAR-5 ovarian): 1.8 µM
- TGI (OVCAR-5 ovarian): 3.53 µM
- GI50 (HCC-2998 colon): 1.78 µM
- TGI (HCC-2998 colon): 3.32 µM
- GI50 (HOP-92 NSCLC): 1.63 µM
- TGI (HOP-92 NSCLC): 3.69 µM
- GI50 (RXF 393 renal): 1.56 µM
- TGI (RXF 393 renal): 2.99 µM
- GI50 (UO-31 renal): 1.51 µM
- TGI (UO-31 renal): 2.91 µM
- GI50 (TK-10 renal): 1.83 µM
- TGI (TK-10 renal): 3.51 µM
- GI50 (SK-MEL-2 melanoma): 1.42 µM
- TGI (SK-MEL-2 melanoma): 2.99 µM
